From BindingDB's records for doi:10.1016/j.bmcl.2005.02.011 (Florida Institute of Technology, 2005)

Test: Effective concentration for DP2 mediated chemotaxis in eosinophils

Row | EC50 [nM] | Structure (SMILES)
1 | 128 | CCCCC[C@](C)(O)/C=C/[C@H]1C(=O)C[C@H](O)[C@@H]1C/C=C/CCCC(=O)O
2 | 10 | CCCCC[C@H](O)/C=C/[C@H]1C(=O)C[C@H](O)[C@@H]1C/C=C/CCCC(=O)O [(Z)-7-[(1R,2R,5S)-5-Hydroxy-2-((E)-(S)-3-hydroxy-oct-1-enyl)-3-oxo-cyclopentyl]-hept-5-enoic acid]
3 | 1.7 | CCCCC[C@@](C)(O)/C=C/[C@H]1C(=O)C[C@H](O)[C@@H]1C/C=C/CCCC(=O)O [(Z)-7-[(1R,4S,5R)-5-Hydroxy-2-((R)-3-hydroxy-3-methyl-oct-1-enyl)-3-oxo-cyclopentyl]-hept-5-enoic acid]
